Measurements from publication PMC12291913 (Antibiotics, 2025).
Values after ≈ are worked out from the molar mass of the structure shown. Values joined by “and” are separate entries in the source; they are usually repeats but may differ in a detail not shown here. Identical values can stand only once. Like-named read-outs stand apart in the source and are kept apart here.

Tests used:
[1] = system: M. avium clinical isolate Koav 11 (GyrA Asp95Tyr); assay type: cell-based, M. avium subsp. hominissuis
[2] = system: M. avium clinical isolate Koav 2 (WT); assay: microbe, parasite or virus in culture; assay type: cell-based; conditions: Mycobacterium avium, drug alone, day 14
[3] = system: M. avium clinical isolate Koav 13 (GyrA Asp95Gly); assay type: cell-based, M. avium subsp. hominissuis
[4] = system: M. avium clinical isolate Cl-A-2 (GyrA Asp95Tyr); assay type: cell-based, M. avium subsp. hominissuis
[5] = system: M. avium clinical isolate Koav 25 (WT); assay: microbe, parasite or virus in culture; assay type: cell-based; conditions: Koav 25 (K 25), WT; for MIC: Mycobacterium avium
[6] = system: M. avium clinical isolate Koav 21 (WT); assay: microbe, parasite or virus in culture; assay type: cell-based; conditions: Mycobacterium avium
[7] = system: M. avium clinical isolates; assay type: cell-based, M. avium subsp. hominissuis
[8] = system: M. avium clinical isolate Koav 15 (WT); assay: microbe, parasite or virus in culture; assay type: cell-based; conditions: Koav 15 (K 15), WT
[9] = system: M. avium clinical isolate Koav 25 (WT); assay: microbe, parasite or virus in culture; assay type: cell-based; conditions: Mycobacterium avium
[10] = system: M. avium clinical isolate Koav 15 (WT); assay: microbe, parasite or virus in culture; assay type: cell-based; conditions: Mycobacterium avium
[11] = system: M. avium clinical isolate Koav 1 (WT); assay: microbe, parasite or virus in culture; assay type: cell-based; conditions: Mycobacterium avium
[12] = system: M. avium clinical isolate Koav 1 (WT); assay: microbe, parasite or virus in culture; assay type: cell-based; conditions: Koav 1 (K 1), WT; for MIC: Mycobacterium avium
[13] = system: M. avium clinical isolates; assay type: cell-based, M. avium subsp. hominissuis; conditions: for range of mean FICIms: over isolates, WQ-3810 and MXF together
[14] = system: M. avium clinical isolate Cl-A-2 (GyrA Asp95Tyr); assay type: cell-based, M. avium subsp. hominissuis; remark: listed apart in the source
[15] = system: M. avium clinical isolate Koav 2 (WT); assay: microbe, parasite or virus in culture; assay type: cell-based; conditions: Koav 2 (K 2), WT; for MIC: Mycobacterium avium
[16] = system: M. avium clinical isolate Koav 19 (WT); assay: microbe, parasite or virus in culture; assay type: cell-based; conditions: Mycobacterium avium
[17] = system: M. avium clinical isolate Koav 21 (WT); assay: microbe, parasite or virus in culture; assay type: cell-based; conditions: Koav 21 (K 21), WT; for MIC: Mycobacterium avium
[18] = system: M. avium clinical isolate Koav 19 (WT); assay: microbe, parasite or virus in culture; assay type: cell-based; conditions: Koav 19 (K 19), WT
[19] = system: M. avium clinical isolate Koav 13 (GyrA Asp95Gly); assay type: cell-based, M. avium subsp. hominissuis; remark: listed apart in the source
[20] = system: M. avium clinical isolate Koav 3 (GyrA Asp95Gly); assay type: cell-based, M. avium subsp. hominissuis
[21] = system: M. avium clinical isolate Koav 20 (WT); assay: microbe, parasite or virus in culture; assay type: cell-based; conditions: Koav 20 (K 20), WT; for MIC: Mycobacterium avium
[22] = system: M. avium clinical isolate Koav 20 (WT); assay: microbe, parasite or virus in culture; assay type: cell-based; conditions: Mycobacterium avium
[23] = system: M. avium clinical isolate Koav 11 (GyrA Asp95Tyr); assay type: cell-based, M. avium subsp. hominissuis; remark: listed apart in the source
[24] = checkerboard (S2: with 1 µg/ml EMB), read-out: MIC of FQ with EMB
[25] = checkerboard, single replicates, read-out: MIC of drug alone
[26] = drug alone, day 14, read-out: MIC
[27] = FQ-resistant isolates, MIC assay
[28] = Mycobacterium avium, checkerboard, single replicates, read-out: MIC of drug alone
[29] = checkerboard, single replicates
[30] = checkerboard (with 1 µg/ml INH), read-out: MIC of FQ with INH
[31] = checkerboard (with 1 µg/ml INH)

## Cc1c(N2CC(N(C)C)C2)c(F)cc2c(=O)c(C(=O)O)cn(-c3nc(N)c(F)cc3F)c12 [WQ-3810]
[1]
  MIC of FQ with EMB: 2 µg/mL
  MIC of FQ with INH: 1 µg/mL and 0.5 µg/mL
  MIC of drug alone: 4 µg/mL
  mean FICIm: 0.46 and 0.83
[2]
  MIC: 0.5 µg/mL (≈ 1.12 µM)
[3]
  MIC of FQ with EMB: 4 µg/mL and 2 µg/mL
  MIC of drug alone: 8 µg/mL and 4 µg/mL
[4]
  MIC: 4 µg/mL (≈ 8.94 µM)
  MIC with 1 µg/mL EMB: 1 (×0.25) µg/mL
  MIC with 1 µg/mL INH: 1(×0.25) µg/mL
[5]; FQ with EMB
  mean FICIm: 0.75
[5]; FQ with INH
  mean FICIm: 0.39
[5]; FQ+EMB, single replicates
  FICIm: 0.75
[5]; FQ+INH, single replicates
  FICIm: 0.5 and 0.375 and 0.3125
[5]; pair with EMB
  FIC of FQ: 0.25 µg/mL
[5]; [24]
  MIC: 0.25 µg/mL
[5]; [25]
  MIC: 1 µg/mL
[6]; [26]
  MIC: 1 µg/mL (≈ 2.24 µM)
[6]; read-out: MIC with 1 µg/mL EMB
  MIC: 1 µg/mL (≈ 2.24 µM)
[6]; read-out: MIC with 1 µg/mL INH
  MIC: 1 µg/mL (≈ 2.24 µM)
[7]
  MIC range: 4 to 8 µg/mL
[7]; [27]
  higher antimicrobial activity than CIP: 4 to 8 fold
  higher antimicrobial activity than LVX: 2 to 16 fold
  higher antimicrobial activity than MXF: 2 to 4 fold
[7]; WT isolates
  MIC range: 0.125 to 1 µg/mL
[8]; FQ with EMB
  mean FICIm: 0.71
[8]; FQ with INH
  mean FICIm: 0.33
[8]; FQ+EMB, single replicates
  FICIm: 0.75 and 0.625
[8]; FQ+INH, single replicates
  FICIm: 0.25 and 0.5 and 0.2812
[8]; [28]
  MIC: 1 µg/mL
[9]; [26]
  MIC: 1 µg/mL (≈ 2.24 µM)
[9]; read-out: MIC with 1 µg/mL EMB
  MIC: 0.5 µg/mL (≈ 1.12 µM)
[9]; read-out: MIC with 1 µg/mL INH
  MIC: 0.5 µg/mL (≈ 1.12 µM)
[10]; [26]
  MIC: 1 µg/mL (≈ 2.24 µM)
[10]; read-out: MIC with 1 µg/mL EMB
  MIC: 1 µg/mL (≈ 2.24 µM)
[10]; read-out: MIC with 1 µg/mL INH
  MIC: 1 µg/mL (≈ 2.24 µM)
[11]; [26]
  MIC: 0.125 µg/mL (≈ 0.279 µM)
[11]; read-out: MIC with 1 µg/mL EMB
  MIC: 0.01 µg/mL (≈ 0.0224 µM)
[11]; read-out: MIC with 1 µg/mL INH
  MIC: 0.03 µg/mL (≈ 0.0671 µM)
[12]; FQ with EMB
  mean FICIm: 0.62
[12]; FQ with INH
  mean FICIm: 0.45
[12]; FQ+EMB, single replicates
  FICIm: 0.625 and 0.5 and 0.75
[12]; FQ+INH, single replicates
  FICIm: 0.5 and 0.375
[12]; [29]
  MIC of drug alone: 0.25 µg/mL
[12]; [30]
  MIC: 0.0312 µg/mL
[12]; [25]
  MIC: 0.125 µg/mL
[13]; in combination with EMB, mean FICIm between 0.5 and 1 additive
  interaction: additive
[13]; in combination with INH, FICIm ≤ 0.5 regarded as synergistic
  interaction: synergistic
[13]; with EMB
  range of mean FICIms: 0.41 to 0.91
[13]; with INH
  range of mean FICIms: 0.19 to 0.71
[14]
  MIC of FQ with EMB: 1 µg/mL and 0.5 µg/mL
  MIC of FQ with INH: 0.5 µg/mL and 0.25 µg/mL
  mean FICIm: 0.53 and 0.66
[15]; FQ with EMB
  mean FICIm: 0.91
[15]; FQ with INH
  mean FICIm: 0.25
[15]; FQ+EMB, single replicates
  FICIm: 0.75 and 1
[15]; FQ+INH, single replicates
  FICIm: 0.25
[15]; checkerboard (S2: with 1 µg/ml EMB)
  MIC of FQ with EMB: 0.25 µg/mL
[15]; [24]
  MIC: 0.125 µg/mL
[15]; [30]
  MIC: 0.0625 µg/mL
[15]; [25]
  MIC: 0.5 µg/mL
[16]; [26]
  MIC: 0.5 µg/mL (≈ 1.12 µM)
[16]; read-out: MIC with 1 µg/mL EMB
  MIC: 0.25 µg/mL (≈ 0.559 µM)
[16]; read-out: MIC with 1 µg/mL INH
  MIC: 0.13 µg/mL (≈ 0.291 µM)
[17]; FQ with EMB
  mean FICIm: 0.75
[17]; FQ with INH
  mean FICIm: 0.41
[17]; FQ+EMB, single replicates
  FICIm: 0.75
[17]; FQ+INH, single replicates
  FICIm: 0.375 and 0.5312
[17]; [31]
  MIC of FQ with INH: 1 µg/mL
[17]; [24]
  MIC: 0.5 µg/mL
[17]; [30]
  MIC: 0.5 µg/mL
[17]; [25]
  MIC: 2 µg/mL
[18]; FQ with EMB
  mean FICIm: 0.85
[18]; FQ with INH
  mean FICIm: 0.45 and 0.46
[18]; FQ+EMB, single replicates
  FICIm: 1 and 0.625
[18]; FQ+INH, single replicates
  FICIm: 0.5312 and 0.5 and 0.375
[18]; [29]
  MIC of drug alone: 0.5 µg/mL
[18]; [28]
  MIC: 0.25 µg/mL
[19]
  MIC: 8 µg/mL (≈ 17.9 µM)
  MIC with 1 µg/mL EMB: 4 (×0.5) µg/mL
  MIC with 1 µg/mL INH: 4 (×0.5) µg/mL
[20]
  FICIm: 0.75
  MIC of FQ with EMB: 1 µg/mL and 2 µg/mL
  MIC of FQ with INH: 1 µg/mL and 2 µg/mL
  MIC of drug alone: 4 µg/mL
  mean FICIm: 0.71 and 0.75
[21]; FQ with EMB
  mean FICIm: 0.66
[21]; FQ with INH
  mean FICIm: 0.25
[21]; FQ+EMB, single replicates
  FICIm: 0.625 and 0.75
[21]; FQ+INH, single replicates
  FICIm: 0.25
[21]; [31]
  MIC of FQ with INH: 0.0625 µg/mL
[21]; [29]
  MIC of drug alone: 0.5 µg/mL
[21]; [30]
  MIC: 0.0312 µg/mL
[21]; [25]
  MIC: 0.25 µg/mL
[22]; [26]
  MIC: 0.125 µg/mL (≈ 0.279 µM)
[22]; read-out: MIC with 1 µg/mL EMB
  MIC: 0.13 µg/mL (≈ 0.291 µM)
[22]; read-out: MIC with 1 µg/mL INH
  MIC: 0.13 µg/mL (≈ 0.291 µM)
[23]
  MIC: 4 µg/mL (≈ 8.94 µM)
  MIC with 1 µg/mL EMB: 4 (×1) µg/mL
  MIC with 1 µg/mL INH: 4 (×1) µg/mL
